In series [1] the target is T1, Acetylcholinesterase (Homo sapiens, UniProt P22303). The series can be described thus: Inhibition of AChE (unknown origin).
Series [2] concerns the target T2, Cholinesterase (Homo sapiens, UniProt P06276). As to the kind of experiment: Inhibition of BChE (unknown origin).
Series [3] is described as follows: Induction of NO release upto 100 uM incubated for 5 to 10 mins by Griess assay. Conditions: time 5-10 min. It is filed as functional. For orientation: The Griess reaction detects nitrite, a stable product of nitric oxide.
The test system of another series is PC-12. As to the kind of experiment: Cytotoxicity against rat PC-12 cells upto 20 uM incubated for 24 hrs by MTT assay. Format: toxicity, cell-based. As to conditions: pc-12, 24 h. A general note: Tetrazolium assays rely on reduction of a dye to a coloured formazan, in cell work by metabolically active cells.
The test system of series [4] is HMC3. As to the kind of experiment: Antiinflammatory activity against LPS/ATP-induced human HMC3 cells assessed as reduction in nuclear translocation of NF-kappaB at 12.5 uM by immunocytochemistry based analysis. Format: functional, cell-based.
The test system of series [5] is HMC3. As to the kind of experiment: Antiinflammatory activity against LPS/ATP-induced human HMC3 cells assessed as increase in vimentin level at 12.5 uM by immunocytochemistry based analysis. It is filed as functional, cell-based.
Series [6] relates to Mus musculus. As to the kind of experiment: Neuroprotective activity against scopolamine-induced cognitive deficit Swiss albino mouse model assessed as increase in PSD95 mRNA level at 10 mg/kg, ip measured after 14 days by RT-PCR analysis. Conditions: time 14.0 day. It is filed as functional, organism-based.
The subject of series [7] is HMC3. The series can be described thus: Antiinflammatory activity against LPS/ATP-induced human HMC3 cells assessed as increase in Nrf2 level at 12.5 uM by Western blot analysis. Format: functional, cell-based. In general terms: In western blotting, separated proteins are transferred to a membrane and probed.
Series [8] is described as follows: Antioxidant activity assessed as DPPH radical scavenging activity at 20 to 200 uM incubated for 30 mins by absorbance based analysis relative to control. It is filed as functional. As to conditions: dose 20-200 µM.
In series [9] the test system is HMC3. As to the kind of experiment: Inhibition of ROS production in LPS/ATP-induced human HMC3 cells at 12.5 uM incubated for 24 hrs by MitoSOX Red FM staining based analysis. It is filed as functional, cell-based.
In series [10] the test system is Mus musculus. As to the kind of experiment: Neuroprotective activity against scopolamine-induced cognitive deficit Swiss albino mouse model assessed as increase in c-FOS mRNA level at 10 mg/kg, ip measured after 14 days by RT-PCR analysis. It is filed as functional, organism-based. As to conditions: time 14.0 day.
The test system of series [11] is HMC3. The series can be described thus: Antiinflammatory activity against LPS/ATP-induced human HMC3 cells assessed as reduction in IL-18 level at 12.5 uM by Western blot analysis. Format: functional, cell-based.
A short description of series [12]: Metal chelating activity assessed as compound-Fe3+ complex formation at 600 uM incubated for 24 hrs by UV spectrophotometry.
The target in series [13] is T1, Acetylcholinesterase. The series can be described thus: Inhibition of human AChE using ATCI as substrate preincubated for 30 mins followed by substrate addition measured after 30 mins by Ellman's method.
Series [14] has as its system Mus musculus. The series can be described thus: Protection against scopolamine-associated dementia in Swiss albino mouse model assessed as increase in latency period at 10 mg/kg, ip measured after 14 days by Passive avoidance task method. Format: functional, organism-based. As to conditions: time 14.0 day.
Series [15] addresses Microtubule-associated protein tau (Homo sapiens) (UniProt P10636). The series can be described thus: Inhibition of Tau (unknown origin) aggregation at 1.125 uM incubated for 3 days by ThT assay. Conditions: time 3.0 day.
Series [16] deals with HMC3. As to the kind of experiment: Antiinflammatory activity against LPS/ATP-induced human HMC3 cells assessed as reduction in NLRP3 level at 12.5 uM by Western blot analysis. It is filed as functional, cell-based.
Series [17] deals with HMC3. As to the kind of experiment: Antiinflammatory activity against LPS/ATP-induced human HMC3 cells assessed as reduction in NF-kappaB level at 12.5 uM by immunocytochemistry based analysis. Format: functional, cell-based.
The subject of series [18] is HMC3. The series can be described thus: Antiinflammatory activity against LPS/ATP-induced human HMC3 cells assessed as reduction in NLRP3 level at 12.5 uM by immunocytochemistry based analysis. It is filed as functional, cell-based.
Series [19] relates to HMC3. As to the kind of experiment: Antiinflammatory activity against LPS/ATP-induced human HMC3 cells assessed as reduction in IL-1beta level at 12.5 uM by Western blot analysis. It is filed as functional, cell-based.
Series [20] can be described thus: Acute toxicity in Swiss albino mouse assessed as signs of convulsion at 2000 mg/kg, po measured 14 days post-administration. It is filed as organism-based. As to conditions: in vivo, 336 h, time 14 day.
For series [21], the system named is HMC3. As to the kind of experiment: Induction of mitochondrial membrane potential stability in LPS/ATP-induced human HMC3 cells at 12.5 uM incubated for 24 hrs by Rhodamine 123/JC-1 staining based analysis. Format: functional, cell-based.
The target of series [22] is T2, Cholinesterase. As to the kind of experiment: Inhibition of human BChE using BTCI as substrate preincubated for 30 mins followed by substrate addition measured after 30 mins by Ellman's method.
For series [23], the target named is T1, Acetylcholinesterase. As to the kind of experiment: Mixed inhibition of human AChE using ATCI as substrate at 0.1 to 5 uM preincubated for 30 mins followed by substrate addition by Ellman's method. Conditions: dose 0.1-5 µM.
The test system of series [24] is Mus musculus. As to the kind of experiment: Neuroprotective activity against scopolamine-induced cognitive deficit Swiss albino mouse model assessed as increase in PKA mRNA level at 10 mg/kg, ip measured after 14 days by RT-PCR analysis. Format: functional, organism-based. Conditions: time 14.0 day.
Series [25] relates to Mus musculus. As to the kind of experiment: Neuroprotective activity against scopolamine-induced cognitive deficit Swiss albino mouse model assessed as increase in TRKB mRNA level at 10 mg/kg, ip measured after 14 days by RT-PCR analysis. Conditions: time 14.0 day. Format: functional, organism-based.
The subject of series [26] is Mus musculus. The series can be described thus: Neuroprotective activity against scopolamine-induced cognitive deficit Swiss albino mouse model assessed as increase in CREB1 mRNA level at 10 mg/kg, ip measured after 14 days by RT-PCR analysis. It is filed as functional, organism-based. As to conditions: time 14.0 day.
Series [27] in a line: Acute toxicity in Swiss albino mouse assessed as animal survival at 2000 mg/kg, po measured 14 days post-administration. It is filed as organism-based. As to conditions: in vivo, 336 h, time 14 day.
Series [28] deals with Mus musculus. The series can be described thus: Reversal of scopolamine-induced cognitive deficit Swiss albino mouse model assessed as increase in number of entries in target quadrant at 10 mg/kg, ip measured after 5 days by Morris water maze test. Format: functional, organism-based. Conditions: time 5.0 day.
A short description of series [29]: Acute toxicity in Swiss albino mouse assessed as signs of diarrhea at 2000 mg/kg, po measured 14 days post-administration. Format: organism-based. As to conditions: in vivo, 336 h, time 14 day.
Series [30] concerns Mus musculus. The series can be described thus: Reversal of scopolamine-induced cognitive deficit Swiss albino mouse model assessed as reduction in distance traveled to reach platform at 10 mg/kg, ip measured after 5 days by Morris water maze test. It is filed as functional, organism-based. Conditions: time 5.0 day.
Series [31] relates to Mus musculus. As to the kind of experiment: Neuroprotective activity against scopolamine-induced cognitive deficit Swiss albino mouse model assessed as increase in Nr4a2 mRNA level at 10 mg/kg, ip measured after 14 days by RT-PCR analysis. Format: functional, organism-based. Conditions: time 14.0 day.
The nature of series [32]: Permeability of compound in PBS at pH 7.4 at 500 uM by PAMPA. Format: ADME. As to conditions: read-out: permeability.
In series [33] the test system is HMC3. The series can be described thus: Inhibition of LPS/ATP-induced cytotoxicity against human HMC3 cells at 12.5 uM incubated for 24 hrs by MTT assay. It is filed as functional, cell-based.
Series [34] can be described thus: Acute toxicity in Swiss albino mouse assessed as signs of abnormal behaviour at 2000 mg/kg, po measured 14 days post-administration. It is filed as organism-based. As to conditions: in vivo, 336 h, time 14 day.
Series [35] deals with Mus musculus. The series can be described thus: Neuroprotective activity against scopolamine-induced cognitive deficit Swiss albino mouse model assessed as increase in GAP43 mRNA level at 10 mg/kg, ip measured after 14 days by RT-PCR analysis. It is filed as functional, organism-based. Conditions: time 14.0 day.
Series [36] deals with Cholinesterase (Equus caballus) (UniProt P81908). As to the kind of experiment: Competitive inhibition of equine BChE using BTCI as substrate at 1 to 10 uM preincubated for 30 mins followed by substrate addition by Ellman's method. Conditions: dose 1-10 µM.
Sequence of Cholinesterase (Equus caballus) (P81908 whole entry): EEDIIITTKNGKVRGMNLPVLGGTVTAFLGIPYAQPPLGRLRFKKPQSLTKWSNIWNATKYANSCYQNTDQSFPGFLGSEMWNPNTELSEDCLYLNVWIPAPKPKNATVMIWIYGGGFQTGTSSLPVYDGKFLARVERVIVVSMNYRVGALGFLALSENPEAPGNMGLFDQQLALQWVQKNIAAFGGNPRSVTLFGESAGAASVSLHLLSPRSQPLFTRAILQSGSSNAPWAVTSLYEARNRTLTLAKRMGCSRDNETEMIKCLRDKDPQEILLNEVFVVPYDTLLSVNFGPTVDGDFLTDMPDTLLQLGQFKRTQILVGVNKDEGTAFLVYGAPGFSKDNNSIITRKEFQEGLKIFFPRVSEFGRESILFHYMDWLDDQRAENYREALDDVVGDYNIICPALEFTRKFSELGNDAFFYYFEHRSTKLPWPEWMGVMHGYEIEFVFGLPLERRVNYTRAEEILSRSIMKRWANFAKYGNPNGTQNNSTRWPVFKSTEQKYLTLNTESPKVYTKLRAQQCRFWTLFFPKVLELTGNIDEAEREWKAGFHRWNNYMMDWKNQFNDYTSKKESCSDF
Series [37] has as its target Cholinesterase (Equus caballus, UniProt P81908). The series can be described thus: Inhibition of equine BChE using BTCI as substrate preincubated for 30 mins followed by substrate addition measured after 30 mins by Ellman's method.
In series [38] the test system is Mus musculus. As to the kind of experiment: Neuroprotective activity against scopolamine-induced cognitive deficit Swiss albino mouse model assessed as increase in BDNF mRNA level at 10 mg/kg, ip measured after 14 days by RT-PCR analysis. It is filed as functional, organism-based. Conditions: time 14.0 day.
The test system of series [39] is HMC3. The series can be described thus: Antiinflammatory activity against LPS/ATP-induced human HMC3 cells assessed as reduction in caspase-1 level at 12.5 uM by Western blot analysis. Format: functional, cell-based.
A short description of series [40]: Acute toxicity in Swiss albino mouse assessed as signs of over-weight gain at 2000 mg/kg, po measured 14 days post-administration. It is filed as organism-based. Conditions: in vivo, 336 h, time 14 day.
Series [41] can be described thus: Acute toxicity in Swiss albino mouse assessed as signs of tremor at 2000 mg/kg, po measured 14 days post-administration. It is filed as organism-based. As to conditions: in vivo, 336 h, time 14 day.
A short description of series [42]: Antioxidant activity assessed as inhibition of DPPH radical scavenging activity incubated for 30 mins by absorbance based analysis. Format: functional.
The subject of series [43] is Mus musculus. The series can be described thus: Reversal of scopolamine-induced cognitive deficit Swiss albino mouse model assessed as decrease in escape latency at 10 mg/kg, ip measured for 5 days by Morris water maze test. Format: functional, organism-based. Conditions: time 5.0 day.
Series [44] concerns HMC3. The series can be described thus: Antiinflammatory activity against LPS/ATP-induced human HMC3 cells assessed as decrease in Iba-1 level at 12.5 uM by Western blot analysis. It is filed as functional, cell-based.
The target in series [45] is Amyloid-beta precursor protein (Homo sapiens) (UniProt P05067). The series can be described thus: Inhibition of self-mediated Amyloid beta (1 to 42)(unknown origin) aggregation at 3.125 uM incubated for 3 days by ThT assay. Conditions: time 3.0 day.
Sequence of Amyloid-beta precursor protein (Homo sapiens) (P05067 whole entry): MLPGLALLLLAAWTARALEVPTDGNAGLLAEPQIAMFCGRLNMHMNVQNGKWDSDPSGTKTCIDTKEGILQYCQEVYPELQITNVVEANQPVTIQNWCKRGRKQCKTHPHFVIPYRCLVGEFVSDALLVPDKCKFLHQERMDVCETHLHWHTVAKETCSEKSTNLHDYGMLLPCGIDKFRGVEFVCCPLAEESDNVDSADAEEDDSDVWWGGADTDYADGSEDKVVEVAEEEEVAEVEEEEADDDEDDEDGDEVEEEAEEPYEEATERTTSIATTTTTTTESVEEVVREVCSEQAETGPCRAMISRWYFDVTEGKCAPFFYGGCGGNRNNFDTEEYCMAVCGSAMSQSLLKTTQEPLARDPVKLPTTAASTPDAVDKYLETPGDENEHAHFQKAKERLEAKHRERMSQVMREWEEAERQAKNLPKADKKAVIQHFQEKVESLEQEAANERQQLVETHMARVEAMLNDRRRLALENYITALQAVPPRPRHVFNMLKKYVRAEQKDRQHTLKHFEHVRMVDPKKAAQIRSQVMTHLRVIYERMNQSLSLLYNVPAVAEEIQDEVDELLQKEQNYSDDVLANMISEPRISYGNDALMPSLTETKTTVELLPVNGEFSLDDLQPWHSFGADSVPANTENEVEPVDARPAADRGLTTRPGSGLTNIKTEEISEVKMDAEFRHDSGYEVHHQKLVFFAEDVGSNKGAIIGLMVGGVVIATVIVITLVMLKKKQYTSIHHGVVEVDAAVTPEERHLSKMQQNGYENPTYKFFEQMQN
Series [46] concerns HMC3. The series can be described thus: Inhibition of mitochondrial impairment in LPS/ATP-induced human HMC3 cells at 12.5 uM incubated for 24 hrs by Rhodamine 123/JC-1 staining based analysis. Format: functional, cell-based.
For series [47], the system named is Mus musculus. The series can be described thus: Reversal of scopolamine-induced cognitive deficit Swiss albino mouse model assessed as increase in time in platform quadrant at 10 mg/kg, ip measured after 5 days by Morris water maze test. Conditions: time 5.0 day. It is filed as functional, organism-based.

Activity calls are given as the source filed them. The calls are words filed in the database; no cut-off is given here.

T1 sequence (P22303 whole entry): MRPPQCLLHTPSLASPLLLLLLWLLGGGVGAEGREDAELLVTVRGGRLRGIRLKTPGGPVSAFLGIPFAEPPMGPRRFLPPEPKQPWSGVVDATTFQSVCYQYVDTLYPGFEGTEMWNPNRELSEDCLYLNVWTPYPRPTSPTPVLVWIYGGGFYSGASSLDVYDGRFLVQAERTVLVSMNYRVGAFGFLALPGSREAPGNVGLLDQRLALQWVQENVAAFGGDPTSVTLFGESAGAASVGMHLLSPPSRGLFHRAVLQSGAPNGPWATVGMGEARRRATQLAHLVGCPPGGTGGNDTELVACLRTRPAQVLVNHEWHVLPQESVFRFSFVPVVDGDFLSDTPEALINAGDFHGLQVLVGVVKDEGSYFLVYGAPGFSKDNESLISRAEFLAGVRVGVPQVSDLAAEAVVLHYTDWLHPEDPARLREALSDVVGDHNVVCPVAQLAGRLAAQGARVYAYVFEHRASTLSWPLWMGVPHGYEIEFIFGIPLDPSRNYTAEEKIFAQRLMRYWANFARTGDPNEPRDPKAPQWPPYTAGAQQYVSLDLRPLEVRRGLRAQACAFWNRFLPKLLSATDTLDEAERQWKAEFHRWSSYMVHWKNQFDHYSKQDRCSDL
T2 sequence (P06276 whole entry): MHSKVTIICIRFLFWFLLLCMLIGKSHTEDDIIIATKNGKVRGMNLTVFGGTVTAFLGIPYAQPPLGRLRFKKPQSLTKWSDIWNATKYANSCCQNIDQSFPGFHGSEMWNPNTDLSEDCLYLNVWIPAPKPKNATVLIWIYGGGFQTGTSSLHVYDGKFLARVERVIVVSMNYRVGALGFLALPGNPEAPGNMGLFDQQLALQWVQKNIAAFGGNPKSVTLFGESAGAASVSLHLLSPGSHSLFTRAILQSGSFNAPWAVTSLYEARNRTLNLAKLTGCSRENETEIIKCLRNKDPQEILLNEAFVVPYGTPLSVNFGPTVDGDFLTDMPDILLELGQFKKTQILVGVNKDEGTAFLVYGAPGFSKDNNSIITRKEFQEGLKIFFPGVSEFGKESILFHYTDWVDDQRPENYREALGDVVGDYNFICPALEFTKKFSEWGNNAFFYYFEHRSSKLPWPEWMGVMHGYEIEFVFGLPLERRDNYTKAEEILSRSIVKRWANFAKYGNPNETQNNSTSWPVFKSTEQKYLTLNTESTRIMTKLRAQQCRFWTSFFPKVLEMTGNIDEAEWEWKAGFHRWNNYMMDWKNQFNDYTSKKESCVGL
Sequence of Microtubule-associated protein tau (Homo sapiens) (P10636 whole entry): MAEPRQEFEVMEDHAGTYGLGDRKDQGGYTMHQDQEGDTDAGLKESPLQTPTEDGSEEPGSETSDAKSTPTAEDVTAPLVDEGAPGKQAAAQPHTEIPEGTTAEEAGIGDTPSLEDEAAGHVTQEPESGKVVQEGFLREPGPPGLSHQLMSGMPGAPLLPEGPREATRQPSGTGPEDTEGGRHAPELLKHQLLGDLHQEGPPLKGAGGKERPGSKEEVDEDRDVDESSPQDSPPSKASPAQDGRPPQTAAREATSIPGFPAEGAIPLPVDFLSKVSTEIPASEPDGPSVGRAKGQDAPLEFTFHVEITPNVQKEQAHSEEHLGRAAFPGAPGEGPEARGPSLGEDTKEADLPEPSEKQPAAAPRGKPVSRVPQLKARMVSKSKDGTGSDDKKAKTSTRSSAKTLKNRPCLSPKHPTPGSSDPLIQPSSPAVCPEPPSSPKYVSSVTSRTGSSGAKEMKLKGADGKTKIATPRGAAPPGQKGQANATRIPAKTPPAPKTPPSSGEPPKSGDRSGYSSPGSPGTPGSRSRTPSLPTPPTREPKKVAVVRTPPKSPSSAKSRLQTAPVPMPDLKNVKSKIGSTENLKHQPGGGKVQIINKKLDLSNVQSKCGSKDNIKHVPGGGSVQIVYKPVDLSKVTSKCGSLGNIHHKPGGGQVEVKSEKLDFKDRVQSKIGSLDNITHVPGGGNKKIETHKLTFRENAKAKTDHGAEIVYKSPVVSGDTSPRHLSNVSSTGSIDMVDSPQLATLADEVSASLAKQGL
Sequence of Cholinesterase (Equus caballus, UniProt P81908) (P81908 whole entry): as the sequence (P81908 whole entry) above

With `COc1cc(/C=C/C(=O)NCC(=O)NCCc2c[nH]c3ccccc23)ccc1O`, the IC50 – broadly, the concentration at which inhibition is half-maximal – is 0.96 µM on Acetylcholinesterase [1] and 1.23 µM on Cholinesterase [2].

For `N/C(=N\O)c1cccc(NC(=O)Nc2cccc(F)c2)c1`, the outcome in series [3] and in series [12] was inactive. The Activity result in the series on PC-12 was “Non-toxic”; in series [8], 46.1%; in series [20], “Non-toxic”; in series [27], “Non-toxic”; in series [29] it was “Non-toxic”; in series [34], “Non-toxic”. For the same compound, the Activity result in [40] and in [41] was “Non-toxic” each time. Besides, the outcome with HMC3 [4], in the series on HMC3 [5], in the series on Mus musculus [6], in the series with HMC3 [7], with Mus musculus [10] and with HMC3 [11] was Active. Further, the result in the series with Mus musculus [14], in the series on HMC3 [16], in the series on HMC3 [17], in the series with HMC3 [18], in the series on HMC3 [19] and in the series with HMC3 [21] was Active. Also, the outcome in the series on Mus musculus [24], in the series with Mus musculus [25], in the series with Mus musculus [26], in the series with Mus musculus [28], in the series on Mus musculus [30] and in the series on Mus musculus [31] was Active. The result in the series on Mus musculus [35], in the series with Mus musculus [38], in the series with HMC3 [39], in the series with Mus musculus [43], with HMC3 [44] and in the series with Mus musculus [47] was Active. Moreover, the inhibition entry (with HMC3 [9]; in series [15]; on Acetylcholinesterase [23]; in the series with HMC3 [33]; in [36]; in [45]) was “Active” in each case. Further, the inhibition result in the series with HMC3 [46] is “Active”. For the same compound, the IC50 against Acetylcholinesterase [13] was found to be 1.72 µM; on Cholinesterase [22], 5.21 µM; against Cholinesterase [37] it was 6.69 µM; in series [42], 16.1 µM. Also, in [32], the Papp at 500 µM was 10.7 ×10⁻⁶ cm/s.
